Biological target: T1, recombinant human PAI-1 (Homo sapiens, UniProt P05121)
T1 construct: purchased Molecular Innovations, Inc
Experiment: Test Example 2: human PAI-1 inhibitory activity (tPA fluorogenic substrate, pH 7.4 HEPES buffer)
Assay type: biochemical
Settings: for inhibition at 3 µM / inhibition at 0.3 µM / inhibition at 1 µM: read-out: Inhibition Rate of PAI-1 Activity (%); for Inhibition Rate of PAI-1 Activity (%): human PAI-1
Procedure: 0.1 M HEPES, 0.1 M NaCl. 1 mM EDTA. 0.1% Polyethylene glycol 8,000 (Hampton Research Corporation),
2 mM Dimethyldecylphoshine oxide [Apo-10] (Fluka Corporation)

T1 sequence (P05121 24-402): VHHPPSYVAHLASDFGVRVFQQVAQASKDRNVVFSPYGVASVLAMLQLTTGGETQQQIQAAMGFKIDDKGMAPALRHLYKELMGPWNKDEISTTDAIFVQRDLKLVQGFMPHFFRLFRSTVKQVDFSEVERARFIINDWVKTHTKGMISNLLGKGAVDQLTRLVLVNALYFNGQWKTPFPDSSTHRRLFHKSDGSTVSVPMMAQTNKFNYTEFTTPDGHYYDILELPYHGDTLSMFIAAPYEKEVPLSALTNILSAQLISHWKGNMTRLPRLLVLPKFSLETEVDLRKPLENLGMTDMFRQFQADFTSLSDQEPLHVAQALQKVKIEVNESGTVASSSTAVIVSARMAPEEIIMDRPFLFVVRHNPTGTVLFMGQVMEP

SMILES | Inhibition Rate of PAI-1 Activity (%) (compound concentration 3 μM) | Inhibition Rate of PAI-1 Activity (%) (compound concentration 1 μM) | Inhibition Rate of PAI-1 Activity (%) (compound concentration 0.1 μM) | Inhibition Rate of PAI-1 Activity (%) (compound concentration 0.3 μM) | IC50 [nM] | further results
CCCCCCCCCOc1cc(-c2ccc(OC(F)(F)F)cc2)ccc1N(CCCCc1ccccc1)C(=O)C(=O)O [Compound 380] | – | – | – | – | < 100 | inhibition at 3 µM: > 99%
O=C(O)C(=O)N(CCCCc1ccccc1)c1cc(-c2ccc(OC(F)(F)F)cc2)ccc1OCCCCC(F)(F)F [Compound 381] | – | – | – | – | 1040 | inhibition at 3 µM: > 99%
CCCCCOc1ccc(-c2ccc(OC(F)(F)F)cc2)cc1N(CCCCc1ccc(F)cc1)C(=O)C(=O)O [Compound 382] | – | – | – | – | 650 | –
O=C(O)C(=O)N(CCCCc1ccccc1)c1cc(-c2ccc(OC(F)(F)F)cc2)ccc1OCCC(F)(F)F [Compound 383] | – | – | – | – | 1340 | –
CCCCCOc1ccc(-c2ccc(OC(F)(F)F)cc2)cc1N(CCCCc1ccc(Cl)cc1)C(=O)C(=O)O [Compound 384] | – | – | – | – | 510 | –
CCCCCCCCCCCCCCCOc1cc(-c2ccc(OC(F)(F)F)cc2)ccc1N(CCCCc1ccccc1)C(=O)C(=O)O [Compound 385] | – | – | – | – | < 100 | inhibition at 0.3 µM: > 99%; inhibition at 1 µM: > 99%; inhibition at 3 µM: > 99%
CCCCCCCOc1cc(-c2ccc(OC(F)(F)F)cc2)ccc1N(CCCCc1ccccc1)C(=O)C(=O)O [Compound 386] | – | – | – | – | 470 | inhibition at 1 µM: > 99%; inhibition at 3 µM: > 99%
CCCCCCCCCOc1ccc(N(CCCCc2ccccc2)C(=O)C(=O)O)cc1-c1ccc(OC(F)(F)F)cc1 [Compound 387] | – | – | – | – | < 100 | inhibition at 0.3 µM: > 99%; inhibition at 1 µM: > 99%; inhibition at 3 µM: > 99%
CCCCCCCCCOc1cc(N(Cc2ccc(C(C)(C)C)cc2)C(=O)C(=O)O)ccc1-c1ccc(OC(F)(F)F)cc1 [Compound 388] | – | – | – | – | < 100 | inhibition at 0.3 µM: > 99%; inhibition at 1 µM: > 99%; inhibition at 3 µM: > 99%
CCCCCCCCCOc1cc(N(CCCCc2ccccc2)C(=O)C(=O)O)ccc1-c1ccc(OC(F)(F)F)cc1 [Compound 389] | – | – | – | – | < 100 | inhibition at 1 µM: > 99%; inhibition at 3 µM: > 99%
CCCCCOc1ccc(-c2ccc(C(F)(F)F)cc2)cc1N(CCCCc1ccccc1)C(=O)C(=O)O [Compound 390] | – | – | – | – | 650 | –
CCCCCOc1ccc(-c2cccc(OC(F)(F)F)c2)cc1N(CCCCc1ccccc1)C(=O)C(=O)O [Compound 391] | – | – | – | – | 780 | –
CCCCCOc1cc(-c2ccc(C(F)(F)F)cc2)ccc1N(CCCCc1ccccc1)C(=O)C(=O)O [Compound 392] | – | – | – | – | 710 | inhibition at 3 µM: > 99%
CCCCCOc1cc(-c2cccc(OC(F)(F)F)c2)ccc1N(CCCCc1ccccc1)C(=O)C(=O)O [Compound 393] | – | – | – | – | 690 | –
CCCCCCCOc1ccc(N(CCCCc2ccccc2)C(=O)C(=O)O)cc1-c1ccc(OC(F)(F)F)cc1 [Compound 394] | – | – | – | – | 220 | inhibition at 3 µM: > 99%
CC(C)(C)c1ccc(COc2ccc(N3CCN(c4ccc(OC(F)(F)F)cc4)CC3)cc2CCC(=O)O)cc1 [Compound 419] | 93 | 41 | – | – | – | Inhibition Rate of PAI-1 Activity (%) (compound concentration 10 μM): 98%; Inhibition Rate of PAI-1 Activity (%) (compound concentration 25 μM): >99%
CCCCC(CC(=O)O)c1cc(-c2ccc(OC(F)(F)F)cc2)ccc1Oc1ccc(C(C)(C)C)cc1 (centres unmarked) [Compound 422] | >99 | 72 | 12 | 24 | – | –
CCCCC(Nc1cc(-c2ccc(OC(F)(F)F)cc2)ccc1Oc1ccc(C(C)(C)C)cc1)C(=O)O (centres unmarked) [Compound 423] | 96 | 74 | 1 | 1 | – | –
CCCCN(CC(=O)O)c1cc(-c2ccc(OC(F)(F)F)cc2)ccc1Oc1ccc(C(C)(C)C)cc1 [Compound 428] | 94 | 92 | 18 | 36 | – | –
CCCCCCOc1cc(-c2ccc(OC(F)(F)F)cc2)ccc1OC(CCCCCC)C(=O)O (centres unmarked) [Compound 430] | >99 | 97 | 1 | 15 | – | –

Second part, led by results:

Inhibition Rate of PAI-1 Activity (%) (compound concentration 3 μM) | Inhibition Rate of PAI-1 Activity (%) (compound concentration 1 μM) | Inhibition Rate of PAI-1 Activity (%) (compound concentration 0.1 μM) | Inhibition Rate of PAI-1 Activity (%) (compound concentration 0.3 μM) | SMILES | IC50 [nM] | further results
15 | – | – | – | O=C(O)c1cc(-c2ccc(OC(F)(F)F)cc2)ccc1OCc1ccccc1 [Compound 401] | – | Inhibition Rate of PAI-1 Activity (%) (compound concentration 10 μM): 17%; Inhibition Rate of PAI-1 Activity (%) (compound concentration 25 μM): 53%
63 | 14 | – | – | CCCCOc1ccc(-c2ccc(OC(F)(F)F)cc2)cc1/C=C/C(=O)O [Compound 405] | – | Inhibition Rate of PAI-1 Activity (%) (compound concentration 10 μM): >99%; Inhibition Rate of PAI-1 Activity (%) (compound concentration 25 μM): 95%
41 | 14 | – | – | CCCCOc1ccc(-c2ccc(OC(F)(F)F)cc2)cc1CCC(=O)O [Compound 407] | – | Inhibition Rate of PAI-1 Activity (%) (compound concentration 10 μM): >99%; Inhibition Rate of PAI-1 Activity (%) (compound concentration 25 μM): 98%
98 | 41 | – | – | CC(C)(C)c1ccc(COc2ccc(NS(=O)(=O)c3ccc(OC(F)(F)F)cc3)cc2CCC(=O)O)cc1 [Compound 415] | – | Inhibition Rate of PAI-1 Activity (%) (compound concentration 10 μM): >99%; Inhibition Rate of PAI-1 Activity (%) (compound concentration 25 μM): >99%
54 | 26 | – | – | CN(C(=O)c1ccc(OC(F)(F)F)cc1)c1ccc(OCc2ccc(C(C)(C)C)cc2)c(CCC(=O)O)c1 [Compound 416] | – | Inhibition Rate of PAI-1 Activity (%) (compound concentration 10 μM): >99%; Inhibition Rate of PAI-1 Activity (%) (compound concentration 25 μM): >99%
95 | 73 | – | – | CC(C)(C)c1ccc(COc2ccc(N3CCN(c4ccc(OC(F)(F)F)cc4)CC3)cc2/C=C/C(=O)O)cc1 [Compound 418] | – | Inhibition Rate of PAI-1 Activity (%) (compound concentration 10 μM): 94%; Inhibition Rate of PAI-1 Activity (%) (compound concentration 25 μM): 90%
81 | 14 | 0 | 3 | CC(C)(C)c1ccc(COc2ccc(-c3ccc(OC(F)(F)F)cc3)cc2C(=O)O)cc1 [Compound 421] | – | –
>99 | 38 | 0 | 4 | CCCCCOc1cc(-c2ccc(OC(F)(F)F)cc2)cc(OCCCCC)c1OCC(=O)O [Compound 424] | – | –
– | >99 | 17 | 54 | CCCCCCCOc1cc(-c2ccc(OC(F)(F)F)cc2)cc(OCCCCCCC)c1OCC(=O)O [Compound 425] | – | –
97 | 95 | 10 | 29 | CCCCC(Oc1cc(Oc2ccc(C(C)(C)C)cc2)cc(-c2ccc(OC(F)(F)F)cc2)c1)C(=O)O (centres unmarked) [Compound 426] | – | –
97 | 62 | 1 | 27 | CC(C)(C)c1ccc(Oc2cc(OCC(=O)O)cc(-c3ccc(OC(F)(F)F)cc3)c2)cc1 [Compound 427] | – | –
95 | 93 | 7 | 9 | CCCCCCOc1ccc(-c2ccc(OC(F)(F)F)cc2)cc1OC(CCCCCC)C(=O)O (centres unmarked) [Compound 429] | – | –
